Assay results from patent publication US9062028B2, “Bicyclic nitrogen containing heteroaryl TGR5 receptor modulators” (Bristol-Myers Squibb Company, priority 2011, dated 2015).
Structures can show the parent of a compound that is named as a salt.

Molecular target: T1, recombinant human TGR5 (Homo sapiens, UniProt Q8TDU6)
T1 construct: expressed in transfected cells
T1 sequence (Q8TDU6 1-330): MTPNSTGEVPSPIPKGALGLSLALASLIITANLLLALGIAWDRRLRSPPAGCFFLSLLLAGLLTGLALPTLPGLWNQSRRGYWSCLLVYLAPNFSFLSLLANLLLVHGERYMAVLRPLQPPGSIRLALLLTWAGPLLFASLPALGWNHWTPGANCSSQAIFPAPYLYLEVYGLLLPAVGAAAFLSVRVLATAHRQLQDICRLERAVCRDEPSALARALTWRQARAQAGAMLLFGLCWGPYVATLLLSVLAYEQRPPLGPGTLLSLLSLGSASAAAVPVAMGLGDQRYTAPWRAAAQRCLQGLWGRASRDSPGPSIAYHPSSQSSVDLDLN
Test: cAMP assay (cAMP accumulation, HTRF) in CHOK1 cells stably expressing TGR5
Assay type: cell-based
Conditions: CHOK1 cells stably expressing human TGR5, 30 minutes at RT, 1% DMSO
Summary of the method: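 CHOK1 cells stably expressing TGR5 (text also calls it chimeric human/mouse), 0.4-0.5×10^6 cells/mL in PBS with Ca/Mg and 0.1 mM IBMX, compound 30 min at RT, 1% DMSO. cAMP by HTRF 665/620 interpolated to a standard curve; EC50 from 4-parameter fit as half-maximal increase.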

SMILES	EC50
Cc1cccc(OCCCC(=O)N(C)c2cccc(-c3cnn(Cc4cccc(C(=O)NCCC(=O)O)c4)c3)c2)c1C [Example 552, 3-(3-((4-(3-(4-(2,3-Dimethylphenoxy)-N-methylbutanamido)phenyl)-1H-pyrazol-1-yl)methyl)benzamido)propanoic acid]	2380 nM
CCOC(=O)CN(CC(=O)OCC)C(=O)c1cccc(Cn2cc(-c3cccc4c3[C@H]3C[C@H]3CN4C(=O)CCCOc3cccc(Cl)c3C)cn2)c1 [Example 896, Diethyl 2,2′-(3-((4-((1aR,7bS)-3-(4-(3-chloro-2-methylphenoxy)butanoyl)-1a,2,3,7b-tetrahydro-1H-cyclopropa[c]quinolin-7-yl)-1H-pyrazol-1-yl)methyl)benzoylazanediyl)diacetate]	198 nM
Cc1cccc(OCCCC(=O)N2CCCc3c(-c4cnn(CCNC(=O)NCC(=O)O)c4)cccc32)c1C [Example 110G, 2-(3-(2-(4-(1-(4-(2,3-Dimethylphenoxy)butanoyl)-1,2,3,4-tetrahydroquinolin-5-yl)-1H-pyrazol-1-yl)ethyl)ureido)acetic acid]	3140 nM
Cc1c(Cl)cccc1OC(C)(C)COC(=O)N1CCCOc2c(-c3cnn(Cc4c(F)cc(C(=O)NCCS(=O)(=O)O)cc4Cl)c3)cccc21 [Example 807, 2-(3-Chloro-4-((4-(5-((2-(3-chloro-2-methylphenoxy)-2-methylpropoxy)carbonyl)-2,3,4,5-tetrahydrobenzo[b][1,4]oxazepin-9-yl)-1H-pyrazol-1-yl)methyl)-5-fluorobenzamido)ethanesulfonic acid]	1330 nM
Cc1cccc(N(CCCC(=O)N2CCCc3c(-c4cnn(Cc5cccc(C(=O)O)c5)c4)cccc32)C(=O)OC(C)(C)C)c1C [Example 933, 3-((4-(1-(4-(tert-Butoxycarbonyl(2,3-dimethylphenyl)amino)butanoyl)-1,2,3,4-tetrahydroquinolin-5-yl)-1H-pyrazol-1-yl)methyl)benzoic acid]	1610 nM
Cc1cccc(OCCCC(=O)N2CCSc3c(-c4cnn(Cc5c(F)cc(C(=O)NCC(=O)O)cc5Cl)c4)cccc32)c1C [Example 576, 2-(3-Chloro-4-((4-(4-(4-(2,3-dimethylphenoxy)butanoyl)-3,4-dihydro-2H-benzo[b][1,4]thiazin-8-yl)-1H-pyrazol-1-yl)methyl)-5-fluorobenzamido) acetic acid]	48 nM
Cc1c(Cl)cccc1OCCCC(=O)N1CCSc2c(-c3cnn(Cc4c(F)cc(C(=O)O)cc4Cl)c3)cccc21 [Example 358, 3-Chloro-4-((4-(4-(4-(3-chloro-2-methylphenoxy)butanoyl)-3,4-dihydro-2H-benzo[b][1,4]thiazin-8-yl)-1H-pyrazol-1-yl)methyl)-5-fluorobenzoic acid]	43 nM
COC(=O)c1ccc(O)c(Cn2cc(-c3cccc4c3[C@H]3C[C@H]3CN4C(=O)OCCOc3cccc(Cl)c3C)cn2)c1 [Example 447, (1aR,7bS)-2-(3-Chloro-2-methylphenoxy)ethyl 7-(1-(2-hydroxy-5-(methoxycarbonyl)benzyl)-1H-pyrazol-4-yl)-1a,2-dihydro-1H-cyclopropa[c] quinoline-3(7bH)-carboxylate]	1590 nM
Cc1cccc(OCCCC(=O)N2CCCc3c(-c4cccc(COC(=O)N[C@@H](CC(=O)O)C(=O)O)c4)cccc32)c1C [Example 268, (S)-2-((3-(1-(4-(2,3-Dimethylphenoxy)butanoyl)-1,2,3,4-tetrahydroquinolin-5-yl)benzyloxy)carbonylamino)succinic acid]	5020 nM
Cc1c(Cl)cccc1OCCCC(=O)N1CCSc2c(-c3cnn(Cc4cccc(C(=O)N[C@@H](CC[N+](C)(C)C)C(=O)O)c4)c3)cccc21 [Example 617, (S)-3-Carboxy-3-(3-((4-(4-(4-(3-chloro-2-methylphenoxy)butanoyl)-3,4-dihydro-2H-benzo[b][1,4]thiazin-8-yl)-1H-pyrazol-1-yl)methyl)benzamido)-N,N,N-trimethylpropan-1-aminium, TFA salt]	175 nM
Cc1c(Cl)cccc1OCCOC(=O)N1CC(F)(F)COc2c(-c3cnn(Cc4c(F)cc(C(=O)O)cc4Cl)c3)cccc21 [Example 336, 3-Chloro-4-((4-(5-((2-(3-chloro-2-methylphenoxy)ethoxy)carbonyl)-3,3-difluoro-2,3,4,5-tetrahydrobenzo[b][1,4]oxazepin-9-yl)-1H-pyrazol-1-yl)methyl)-5-fluorobenzoic acid]	173 nM
Cc1cccc(OCCCC(=O)N2CCCc3c(-c4cnn(Cc5cccc(NC(=O)NCC(=O)O)c5)c4)cccc32)c1C [Example 83, 2-(3-(3-((4-(1-(4-(2,3-Dimethylphenoxy)butanoyl)-1,2,3,4-tetrahydroquinolin-5-yl)-1H-pyrazol-1-yl)methyl)phenyl)ureido)acetic acid]	107 nM
Cc1cccc(OCCCC(=O)N2CCCc3c(-c4cnn(Cc5cccc(C(=O)N[C@@H](Cc6ccccc6)C(=O)O)c5)c4)cccc32)c1C [Example 848, (S)-2-(3-((4-(1-(4-(2,3-Dimethylphenoxy)butanoyl)-1,2,3,4-tetrahydroquinolin-5-yl)-1H-pyrazol-1-yl)methyl)benzamido)-3-phenylpropanoic acid]	196 nM
Cc1cccc(OCCCC(=O)N2CCCc3c(-c4cnn(Cc5cccc(C(=O)N(C)CCS(=O)(=O)O)c5)c4)cccc32)c1C [Example 829, 2-(3-((4-(1-(4-(2,3-Dimethylphenoxy)butanoyl)-1,2,3,4-tetrahydroquinolin-5-yl)-1H-pyrazol-1-yl)methyl)-N-methylbenzamido)ethanesulfonic acid]	1350 nM

The remaining compounds from weak to strong by EC50, led by results:

EC50	SMILES
3310 nM	Cc1cccc(OCCCC(=O)N2CCCc3c(-c4cccc(C(=O)NCCS(=O)(=O)O)c4)cccc32)c1C [Example 148, 2-(3-(1-(4-(2,3-Dimethylphenoxy)butanoyl)-1,2,3,4-tetrahydroquinolin-5-yl)benzamido) ethanesulfonic acid]
2860 nM	Cc1cccc(OCCOC(=O)N2CCOc3c(-c4cnn(Cc5ccc(C(=O)O)cc5)c4)cccc32)c1C [Example 28, 4-((4-(4-((2-(2,3-Dimethylphenoxy)ethoxy)carbonyl)-3,4-dihydro-2H-benzo[b][1,4]oxazin-8-yl)-1H-pyrazol-1-yl)methyl)benzoic acid]
1840 nM	Cc1cccc(OCCCC(=O)N2CCCc3c(-c4cnn(Cc5cccc(N(C)C(=O)N(C)CC[N+](C)(C)C)c5)c4)cccc32)c1C [Example 472, 2-(3-(3-((4-(1-(4-(2,3-Dimethylphenoxy)butanoyl)-1,2,3,4-tetrahydroquinolin-5-yl)-1H-pyrazol-1-yl)methyl)phenyl)-1,3-dimethylureido)-N,N,N-trimethylethanaminium, TFA salt]
660 nM	Cc1cccc(OCCCC(=O)N2C[C@H]3C[C@H]3c3c(-c4cnn(Cc5cccc(NC(=O)NCCC(=O)O)c5)c4)cccc32)c1C (single isomer, unassigned) [Example 249]
643 nM	Cc1cccc(OCCCC(=O)N2CCCc3c(-c4cnn(Cc5cccc(C(=O)NCCS(=O)(=O)O)c5)c4C)cccc32)c1C [Example 168J, 2-(3-((4-(1-(4-(2,3-Dimethylphenoxy)butanoyl)-1,2,3,4-tetrahydroquinolin-5-yl)-5-methyl-1H-pyrazol-1-yl)methyl)benzamido) ethanesulfonic acid]
193 nM	Cc1cccc(OCCCC(=O)N2CCCc3c(-c4cnn(Cc5cccc(C(=O)N[C@@H](C)C(=O)O)c5)c4)cccc32)c1C [Example 864, (S)-2-(3-((4-(1-(4-(2,3-Dimethylphenoxy)butanoyl)-1,2,3,4-tetrahydroquinolin-5-yl)-1H-pyrazol-1-yl)methyl)benzamido)propanoic acid]
59 nM	Cc1cccc(OCCCC(=O)N2C[C@@H]3C[C@@H]3c3c(-c4cnn(Cc5cccc(C(=O)NCS(=O)(=O)O)c5)c4)cccc32)c1C (single isomer, unassigned) [Example 238]
45 nM	Cc1cccc(OCCCC(=O)N2CCCc3c(-c4cnn(Cc5c(F)cc(C(=O)NCS(=O)(=O)O)cc5Cl)c4)cccc32)c1C [Example 179, (3-Chloro-4-((4-(1-(4-(2,3-dimethylphenoxy)butanoyl)-1,2,3,4-tetrahydroquinolin-5-yl)-1H-pyrazol-1-yl)methyl)-5-fluorobenzamido)methanesulfonic acid]
43 nM	Cc1c(Cl)cccc1OCCCC(=O)N1CCSc2c(-c3cnn(Cc4c(F)cc(C(=O)NCCC[C@H](N)C(=O)O)cc4Cl)c3)cccc21 [Example 583, (S)-2-Amino-5-(3-chloro-4-((4-(4-(4-(3-chloro-2-methylphenoxy)butanoyl)-3,4-dihydro-2H-benzo[b][1,4]thiazin-8-yl)-1H-pyrazol-1-yl)methyl)-5-fluorobenzamido) pentanoic acid]
38 nM	Cc1c(Cl)cccc1OCCCC(=O)N1CCSc2c(-c3cnn(Cc4c(F)cc(C(=O)NCC(=O)O)cc4Cl)c3)cccc21 [Example 581, 2-(3-Chloro-4-((4-(4-(4-(3-chloro-2-methylphenoxy)butanoyl)-3,4-dihydro-2H-benzo[b][1,4]thaizin-8-yl)-1H-pyrazol-1-yl)methyl)-5-fluorobenzamido)acetic acid]
27 nM	CCOC(=O)CNC(=O)c1cccc(Cn2cc(-c3cccc4c3[C@H]3C[C@H]3CN4C(=O)CCCOc3cccc(Cl)c3C)cn2)c1 [Example 924B, Ethyl 2-(3-((4-((1aR,7bS)-3-(4-(3-chloro-2-methylphenoxy)butanoyl)-1a,2,3,7b-tetrahydro-1H-cyclopropa[c]quinolin-7-yl)-1H-pyrazol-1-yl)methyl)benzamido)acetate]
